Experimental data from publication PMC11277489, “Novel Piperazine Derivatives of Vindoline as Anticancer Agents” (International Journal of Molecular Sciences, 2024).
Where two headings read alike, the source gives them in different places.

Key:
[1] = test system: COLO 205; test: NCI60 one-dose screen (10 μM), Colon Cancer; format: cell-based, human; settings: Homo sapiens
[2] = test system: SF-268; test: NCI60 one-dose screen (10 μM), CNS Cancer; format: cell-based; settings: Homo sapiens
[3] = test system: OVCAR-4; test: NCI60 one-dose screen (10 μM), Ovarian Cancer; format: cell-based; settings: Homo sapiens
[4] = test system: SNB-75; test: NCI60 one-dose screen (10 μM), CNS Cancer; format: cell-based, human; settings: Homo sapiens
[5] = test system: NCI-H23; test: NCI60 one-dose screen (10 μM), Non-small Cell Lung Cancer; format: cell-based; settings: Homo sapiens
[6] = test system: IGROV1; test: NCI60 one-dose screen (10 μM), Ovarian Cancer; format: cell-based; settings: Homo sapiens
[7] = test system: U251; test: NCI60 one-dose screen (10 μM), CNS Cancer; format: cell-based; settings: Homo sapiens
[8] = test system: SK-MEL-5; test: NCI60 one-dose screen (10 μM), Melanoma; format: cell-based, human; settings: Homo sapiens
[9] = test system: LOX IMVI; test: NCI60 one-dose screen (10 μM), Melanoma; format: cell-based, human; settings: Homo sapiens, LOX IMVI, read-out: Growth percent rate
[10] = test system: 786–0; test: NCI60 one-dose screen (10 μM), Renal Cancer; format: cell-based; settings: Homo sapiens
[11] = test system: SK-MEL-28; test: NCI60 one-dose screen (10 μM), Melanoma; format: cell-based; settings: Homo sapiens
[12] = test system: NCI-H322M; test: NCI60 one-dose screen (10 μM), Non-small Cell Lung Cancer; format: cell-based; settings: Homo sapiens, read-out: Growth percent rate
[13] = test system: RPMI-8226; test: NCI60 one-dose screen (10 μM), Leukemia; format: cell-based; settings: Homo sapiens
[14] = test system: MDA-MB-435; test: NCI60 one-dose screen (10 μM), Melanoma; format: cell-based; settings: Homo sapiens
[15] = test system: 60 human tumor cell lines (NCI60); test: NCI60 one-dose screen (10 μM), whole panel; format: cell-based; settings: for activity at 10 µM: read-out: Growth percent rate, Mean
[16] = test system: HOP-62; test: NCI60 one-dose screen (10 μM), Non-small Cell Lung Cancer; format: cell-based; settings: Homo sapiens
[17] = test system: NCI-H460; test: as above; format: cell-based; settings: Homo sapiens
[18] = test system: HCT-15; test: NCI60 one-dose screen (10 μM), Colon Cancer; format: cell-based; settings: Homo sapiens
[19] = test system: ACHN; test: NCI60 one-dose screen (10 μM), Renal Cancer; format: cell-based; settings: Homo sapiens, read-out: Growth percent rate
[20] = test system: SK-MEL-2; test: NCI60 one-dose screen (10 μM), Melanoma; format: cell-based; settings: Homo sapiens
[21] = test system: UACC-257; test: NCI60 one-dose screen (10 μM), Melanoma; format: cell-based; settings: Homo sapiens
[22] = test system: A549/ATCC; test: NCI60 one-dose screen (10 μM), Non-small Cell Lung Cancer; format: cell-based; settings: Homo sapiens
[23] = test system: MOLT-4; test: NCI60 one-dose screen (10 μM), Leukemia; format: cell-based, human; settings: Homo sapiens
[24] = test system: A498; test: NCI60 one-dose screen (10 μM), Renal Cancer; format: cell-based; settings: Homo sapiens
[25] = test system: K-562; test: NCI60 one-dose screen (10 μM), Leukemia; format: cell-based; settings: Homo sapiens
[26] = test system: TK-10; test: NCI60 one-dose screen (10 μM), Renal Cancer; format: cell-based; settings: Homo sapiens
[27] = test system: SNB-19; test: NCI60 one-dose screen (10 μM), CNS Cancer; format: cell-based; settings: Homo sapiens
[28] = test system: HL-60(TB); test: NCI60 one-dose screen (10 μM), Leukemia; format: cell-based; settings: Homo sapiens
[29] = test system: SW-620; test: NCI60 one-dose screen (10 μM), Colon Cancer; format: cell-based; settings: Homo sapiens
[30] = test system: MALME-3M; test: NCI60 one-dose screen (10 μM), Melanoma; format: cell-based; settings: Homo sapiens, read-out: Growth percent rate
[31] = test system: SF-539; test: NCI60 one-dose screen (10 μM), CNS Cancer; format: cell-based, human; settings: Homo sapiens
[32] = test system: SF-295; test: NCI60 one-dose screen (10 μM), CNS Cancer; format: cell-based; settings: Homo sapiens
[33] = test system: M14; test: NCI60 one-dose screen (10 μM), Melanoma; format: cell-based; settings: Homo sapiens
[34] = test system: DU-145; test: NCI60 one-dose screen (10 μM), Prostate Cancer; format: cell-based; settings: Homo sapiens
[35] = test system: CCRF-CEM; test: NCI60 one-dose screen (10 μM), Leukemia; format: cell-based; settings: Homo sapiens, read-out: Growth percent rate
[36] = test system: OVCAR-8; test: NCI60 one-dose screen (10 μM), Ovarian Cancer; format: cell-based; settings: Homo sapiens
[37] = test system: HT29; test: NCI60 one-dose screen (10 μM), Colon Cancer; format: cell-based; settings: Homo sapiens
[38] = test system: CAKI-1; test: NCI60 one-dose screen (10 μM), Renal Cancer; format: cell-based; settings: Homo sapiens
[39] = test system: KM12; test: NCI60 one-dose screen (10 μM), Colon Cancer; format: cell-based, human; settings: Homo sapiens
[40] = test system: MCF7; test: NCI60 one-dose screen (10 μM), Breast Cancer; format: cell-based; settings: Homo sapiens
[41] = test system: RXF 393; test: NCI60 one-dose screen (10 μM), Renal Cancer; format: cell-based, human; settings: Homo sapiens

SMILES: CCC12C=CCN3CCC4(c5ccc(OC)cc5N(C)C4C(O)(C(=O)OC)C1O)C32 (centres unmarked) [Compound 13, 17-desacetylvindoline]
- activity at 10 µM ([1]; COLO 205, read-out: Growth percent rate): 118%
- activity at 10 µM ([2]; SF-268, read-out: Growth percent rate): 107%
- activity at 10 µM ([3]; OVCAR-4, read-out: Growth percent rate): 95.8%
- activity at 10 µM ([4]; SNB-75, read-out: Growth percent rate): 84.9%
- activity at 10 µM ([5]; NCI-H23, read-out: Growth percent rate): 93%
- activity at 10 µM ([6]; IGROV-1, read-out: Growth percent rate): 95.8%
- activity at 10 µM ([7]; U-251, read-out: Growth percent rate): 99.3%
- activity at 10 µM ([8]; SK-MEL-5, read-out: Growth percent rate): 90.5%
- activity at 10 µM [9]: 97.5%
- activity at 10 µM ([10]; 786-0, read-out: Growth percent rate): 97.7%
- activity at 10 µM ([11]; SK-MEL-28, read-out: Growth percent rate): 92.1%
- activity at 10 µM [12]: 92.8%
- activity at 10 µM ([13]; RPMI-8226, read-out: Growth percent rate): 99.4%
- activity at 10 µM ([14]; MDA-MB-435, read-out: Growth percent rate): 89%
- antiproliferative effect (in words) ([15]; 10 μM one-dose, NCI60): a notable antiproliferative effect was not shown
- activity at 10 µM ([15]; Homo sapiens): 98.8%
- activity at 10 µM ([16]; HOP-62, read-out: Growth percent rate): 102%
- activity at 10 µM ([17]; NCI-H460, read-out: Growth percent rate): 106%
- activity at 10 µM ([18]; HCT-15, read-out: Growth percent rate): 99.2%
- activity at 10 µM [19]: 96%
- activity at 10 µM ([20]; SK-MEL-2, read-out: Growth percent rate): 116%
- activity at 10 µM ([21]; UACC-257, read-out: Growth percent rate): 96.7%
- activity at 10 µM ([22]; A549, read-out: Growth percent rate): 103%
- activity at 10 µM ([23]; MOLT-4, read-out: Growth percent rate): 100%
- activity at 10 µM ([24]; A498, read-out: Growth percent rate): 104%
- activity at 10 µM ([25]; K562, read-out: Growth percent rate): 101%
- activity at 10 µM ([26]; TK-10, read-out: Growth percent rate): 93.3%
- activity at 10 µM ([27]; SNB-19, read-out: Growth percent rate): 97.4%
- activity at 10 µM ([28]; HL-60, read-out: Growth percent rate): 119%
- activity at 10 µM ([29]; SW-620, read-out: Growth percent rate): 99.4%
- activity at 10 µM ([30]; Malme-3M): 90.8%
- activity at 10 µM ([31]; SF-539, read-out: Growth percent rate): 96.6%
- activity at 10 µM ([32]; SF-295, read-out: Growth percent rate): 101%
- activity at 10 µM ([33]; M14, read-out: Growth percent rate): 94.7%
- activity at 10 µM ([34]; DU-145, read-out: Growth percent rate): 110%
- activity at 10 µM [35]: 103%
- activity at 10 µM ([36]; OVCAR-8, read-out: Growth percent rate): 103%
- activity at 10 µM ([37]; HT-29, read-out: Growth percent rate): 102%
- activity at 10 µM ([38]; CAKI-1, read-out: Growth percent rate): 98.2%
- activity at 10 µM ([39]; KM12, read-out: Growth percent rate): 103%
- activity at 10 µM ([40]; MCF7, read-out: Growth percent rate): 95.7%
- activity at 10 µM ([41]; RXF 393, read-out: Growth percent rate): 104%

SMILES: CC[C@]12C=CCN3CC[C@@]4(c5ccc(OC)cc5N(C)[C@H]4[C@@](O)(C(=O)OC)[C@@H]1OC(=O)CCC(=O)N1CCN(Cc4ccc(C(F)(F)F)cc4)CC1)[C@@H]32 [Compound 29]
- activity at 10 µM ([1]; 10 μM, COLO 205, Colon Cancer, read-out: Growth percent rate): -91%
- activity at 10 µM ([2]; 10 μM, SF-268, CNS Cancer, read-out: Growth percent rate): 14.6%
- activity at 10 µM ([3]; 10 μM, OVCAR-4, Ovarian Cancer, read-out: Growth percent rate): 10.5%
- activity at 10 µM ([4]; 10 μM, SNB-75, CNS Cancer, read-out: Growth percent rate): 7.51%
- activity at 10 µM ([5]; 10 μM, NCI-H23, Non-small Cell Lung Cancer, read-out: Growth percent rate): 29.4%
- activity at 10 µM ([6]; IGROV-1, 10 μM, IGROV1, Ovarian Cancer, read-out: Growth percent rate): -31.2%
- activity at 10 µM ([7]; U-251, 10 μM, U251, CNS Cancer, read-out: Growth percent rate): 19.1%
- activity at 10 µM ([8]; 10 μM, SK-MEL-5, Melanoma, read-out: Growth percent rate): -90.9%
- activity at 10 µM ([9]; 10 μM, Melanoma): -7.07%
- activity at 10 µM ([10]; 10 μM, 786-0, Renal Cancer, read-out: Growth percent rate): 11.9%
- activity at 10 µM ([11]; 10 μM, SK-MEL-28, Melanoma, read-out: Growth percent rate): 7.72%
- activity at 10 µM ([12]; 10 μM, Non-small Cell Lung Cancer): 35.4%
- activity at 10 µM ([13]; 10 μM, RPMI-8226, Leukemia, read-out: Growth percent rate): -14.2%
- activity at 10 µM ([14]; 10 μM, MDA-MB-435, Melanoma, read-out: Growth percent rate): 3.59%
- activity at 10 µM ([15]; 10 μM, mean over 60 human cancer cell lines): -1.41%
- activity at 10 µM ([16]; 10 μM, HOP-62, Non-small Cell Lung Cancer, read-out: Growth percent rate): 22%
- activity at 10 µM ([17]; 10 μM, NCI-H460, Non-small Cell Lung Cancer, read-out: Growth percent rate): -11.4%
- activity at 10 µM ([18]; 10 μM, HCT-15, Colon Cancer, read-out: Growth percent rate): 15%
- activity at 10 µM ([19]; 10 μM, Renal Cancer): 3.7%
- activity at 10 µM ([20]; 10 μM, SK-MEL-2, Melanoma, read-out: Growth percent rate): -63.4%
- activity at 10 µM ([21]; 10 μM, UACC-257, Melanoma, read-out: Growth percent rate): 22.6%
- activity at 10 µM ([22]; 10 μM, A549/ATCC, Non-small Cell Lung Cancer, read-out: Growth percent rate): 25.3%
- activity at 10 µM ([23]; 10 μM, MOLT-4, Leukemia, read-out: Growth percent rate): -4.63%
- activity at 10 µM ([24]; 10 μM, A498, Renal Cancer, read-out: Growth percent rate): 20.1%
- activity at 10 µM ([25]; K562, 10 μM, K-562, Leukemia, read-out: Growth percent rate): -12.5%
- activity at 10 µM ([26]; 10 μM, TK-10, Renal Cancer, read-out: Growth percent rate): 45.7%
- activity at 10 µM ([27]; 10 μM, SNB-19, CNS Cancer, read-out: Growth percent rate): 20.1%
- activity at 10 µM ([28]; 10 μM, HL-60(TB), Leukemia, read-out: Growth percent rate): -58.2%
- activity at 10 µM ([29]; 10 μM, SW-620, Colon Cancer, read-out: Growth percent rate): 9.15%
- activity at 10 µM ([30]; 10 μM, MALME-3M, Melanoma): -26.5%
- activity at 10 µM ([31]; 10 μM, SF-539, CNS Cancer, read-out: Growth percent rate): 11.7%
- activity at 10 µM ([32]; 10 μM, SF-295, CNS Cancer, read-out: Growth percent rate): 7.76%
- activity at 10 µM ([33]; 10 μM, M14, Melanoma, read-out: Growth percent rate): -20.3%
- activity at 10 µM ([34]; 10 μM, DU-145, Prostate Cancer, read-out: Growth percent rate): 20.3%
- activity at 10 µM ([35]; 10 μM, Leukemia): 3.8%
- activity at 10 µM ([36]; 10 μM, OVCAR-8, Ovarian Cancer, read-out: Growth percent rate): 23.4%
- activity at 10 µM ([37]; HT-29, 10 μM, HT29, Colon Cancer, read-out: Growth percent rate): -10%
- activity at 10 µM ([38]; 10 μM, CAKI-1, Renal Cancer, read-out: Growth percent rate): 6.02%
- activity at 10 µM ([39]; 10 μM, KM12, Colon Cancer, read-out: Growth percent rate): 3.78%
- activity at 10 µM ([40]; 10 μM, MCF7, Breast Cancer, read-out: Growth percent rate): 10.9%
- activity at 10 µM ([41]; 10 μM, RXF 393, Renal Cancer, read-out: Growth percent rate): 10.2%
